Test results as given in ChEMBL document CHEMBL3044713, “Synthesis, characterization, and pharmacological evaluation of new GABA analogs as potent anticonvulsant agents” (Med Chem Res, 2012).
Calls of active or inactive are those of the source. The rule behind the calls is not given here.

Legend:
Mus musculus [1] = test: Anticonvulsant activity in Mus musculus albino (mouse) assessed as protection against maximal electroshock-induced seizures at 300 mg/kg, ip after 0.5 hr; format: functional, organism-based; design: dose 300 mg/kg
Mus musculus [2] = test: Anticonvulsant activity in ip dosed Mus musculus albino (mouse) assessed as protection against subcutaneous pentylenetetrazole-induced seizures after 0.5 hr; format: functional; conditions: read-out: MED
Mus musculus [3] = test: Anticonvulsant activity in ip dosed Mus musculus albino (mouse) assessed as protection against ip picrotoxin-induced seizures after 0.5 hr; format: functional; conditions: read-out: MED
Mus musculus [4] = test: Anticonvulsant activity in ip dosed Mus musculus albino (mouse) assessed as protection against subcutaneous strychnine-induced seizures after 0.5 hr; format: functional; conditions: read-out: MED
Mus musculus [5] = test: Anticonvulsant activity in ip dosed Mus musculus albino (mouse) assessed as protection against ip picrotoxin-induced seizures after 4 hr; format: functional; conditions: read-out: MED
Mus musculus [6] = test: Neurotoxicity in Mus musculus albino (mouse) assessed as motor impairment at 300 mg/kg, ip after 4 hr by rotorod test; format: toxicity, organism-based; design: dose 300 mg/kg, route intraperitoneal; conditions: in vivo
Mus musculus [7] = test: Anticonvulsant activity in ip dosed Mus musculus albino (mouse) assessed as protection against subcutaneous pentylenetetrazole-induced seizures after 4 hr; format: functional; conditions: read-out: MED
Mus musculus [8] = test: Neurotoxicity in Mus musculus albino (mouse) assessed as motor impairment at 300 mg/kg, ip after 0.5 hr by rotorod test; format: toxicity, organism-based; design: dose 300 mg/kg, route intraperitoneal; conditions: in vivo
Mus musculus [9] = test: Anticonvulsant activity in Mus musculus albino (mouse) assessed as protection against subcutaneous strychnine-induced seizures at 300 mg/kg, ip after 4 hr; format: functional, organism-based; design: dose 300 mg/kg
Mus musculus [10] = test: Anticonvulsant activity in Mus musculus albino (mouse) assessed as protection against subcutaneous pentylenetetrazole-induced seizures at 300 mg/kg, ip after 4 hr; format: functional, organism-based; design: dose 300 mg/kg
Mus musculus [11] = test: Anticonvulsant activity in Mus musculus albino (mouse) assessed as protection against ip picrotoxin-induced seizures at 300 mg/kg, ip after 4 hr; format: functional, organism-based; design: dose 300 mg/kg
Mus musculus [12] = test: Anticonvulsant activity in Mus musculus albino (mouse) assessed as protection against subcutaneous pentylenetetrazole-induced seizures at 300 mg/kg, ip after 0.5 hr; format: functional, organism-based; design: dose 300 mg/kg
[13] = Neurotoxicity in ip dosed Mus musculus albino (mouse) assessed as motor impairment after 0.5 hr by rotorod test; format: toxicity, organism-based; conditions: in vivo
Mus musculus [14] = test: Anticonvulsant activity in Mus musculus albino (mouse) assessed as protection against ip picrotoxin-induced seizures at 300 mg/kg, ip after 0.5 hr; format: functional, organism-based; design: dose 300 mg/kg
Mus musculus [15] = test: Anticonvulsant activity in Mus musculus albino (mouse) assessed as protection against subcutaneous strychnine-induced seizures at 300 mg/kg, ip after 0.5 hr; format: functional, organism-based; design: dose 300 mg/kg
[16] = Neurotoxicity in ip dosed Mus musculus albino (mouse) assessed as motor impairment after 4 hr by rotorod test; format: toxicity, organism-based; conditions: in vivo
Mus musculus [17] = test: Anticonvulsant activity in ip dosed Mus musculus albino (mouse) assessed as protection against maximal electroshock-induced seizures after 0.5 hr; format: functional; conditions: read-out: MED
Mus musculus [18] = test: Anticonvulsant activity in ip dosed Mus musculus albino (mouse) assessed as protection against subcutaneous strychnine-induced seizures after 4 hr; format: functional; conditions: read-out: MED

Structure (SMILES) | Activity (Mus musculus [1]) | minimal effective dose (Mus musculus [2]) | minimal effective dose (Mus musculus [3]) | minimal effective dose (Mus musculus [4]) | minimal effective dose (Mus musculus [5]) | Activity (Mus musculus [6]) | minimal effective dose (Mus musculus [7]) | Activity (Mus musculus [8]) | Activity (Mus musculus [9]) | Activity (Mus musculus [10]) | Activity (Mus musculus [11]) | Activity (Mus musculus [12]) | MTD at 0.5 h [13] | Activity (Mus musculus [14]) | Activity (Mus musculus [15]) | MTD at 4 h [16] | minimal effective dose (Mus musculus [17]) | minimal effective dose (Mus musculus [18])
Cc1cc(Cl)ccc1NC(=O)CCCN1C(=O)c2ccccc2C1=O | inactive | 100 mg/kg | 100 mg/kg | 300 mg/kg | 300 mg/kg | Non-toxic | 300 mg/kg | Non-toxic | inactive |  |  |  |  |  |  |  |  | 
O=C(CCCN1C(=O)c2ccccc2C1=O)Nc1ccc(Cl)cc1I | inactive |  | 300 mg/kg | 100 mg/kg |  | Non-toxic |  |  | inactive | inactive | inactive | inactive | 300 mg/kg |  |  |  |  | 
O=C(CCCN1C(=O)c2ccccc2C1=O)Nc1ccccc1 |  |  |  |  |  |  |  | Non-toxic | inactive | inactive | inactive | inactive |  | inactive | inactive | 100 mg/kg | 300 mg/kg | 
O=C(CCCN1C(=O)c2ccccc2C1=O)Nc1ccc(Cl)cc1Cl | inactive |  | 300 mg/kg | 300 mg/kg |  | Non-toxic |  | Non-toxic | inactive | inactive | inactive | inactive |  |  | inactive |  |  | 
O=C(CCCN1C(=O)c2ccccc2C1=O)Nc1ccc(Br)cc1 | inactive | 30 mg/kg | 100 mg/kg |  | 300 mg/kg | Non-toxic |  |  | inactive | inactive |  |  | 100 mg/kg |  | inactive |  |  | 
COc1ccc(NC(=O)CCCN2C(=O)c3ccccc3C2=O)cc1 | inactive |  | 300 mg/kg |  |  | Non-toxic |  | Non-toxic | inactive | inactive | inactive | inactive |  |  | inactive |  |  | 
O=C(CCCN1C(=O)c2ccccc2C1=O)Nc1ccc(Cl)cc1 | inactive |  | 300 mg/kg | 100 mg/kg |  | Non-toxic |  | Non-toxic |  | inactive | inactive | inactive |  |  |  |  |  | 300 mg/kg
O=C(CCCN1C(=O)c2ccccc2C1=O)Nc1ccc(F)cc1 | inactive |  | 300 mg/kg | 300 mg/kg |  | Non-toxic |  | Non-toxic | inactive | inactive | inactive | inactive |  |  |  |  |  | 
CCC1(C)CC(=O)NC1=O (centres undefined) [ETHOSUXIMIDE] |  |  |  |  |  | Non-toxic |  | Non-toxic | inactive | inactive | inactive | inactive |  | inactive | inactive |  | 300 mg/kg | 
O=C(CCCN1C(=O)c2ccccc2C1=O)Nc1ccc([N+](=O)[O-])cc1 | inactive |  |  |  |  |  |  |  | inactive | inactive | inactive | inactive | 100 mg/kg | inactive | inactive | 100 mg/kg |  | 
Cc1ccc(NC(=O)CCCN2C(=O)c3ccccc3C2=O)cc1 | inactive |  | 300 mg/kg |  |  | Non-toxic | 100 mg/kg | Non-toxic | inactive |  | inactive | inactive |  |  | inactive |  |  | 
O=C(CCCN1C(=O)c2ccccc2C1=O)Nc1ccc(I)cc1 | inactive |  |  | 100 mg/kg |  | Non-toxic |  | Non-toxic | inactive | inactive | inactive | inactive |  | inactive |  |  |  | 
O=C(CCCN1C(=O)c2ccccc2C1=O)Nc1ccc(F)cc1F | inactive |  | 300 mg/kg | 100 mg/kg |  | Non-toxic |  | Non-toxic | inactive | inactive | inactive | inactive |  |  |  |  |  | 
O=C1NC(=O)C(c2ccccc2)(c2ccccc2)N1 | inactive |  |  |  |  |  |  |  | inactive | inactive | inactive | inactive |  | inactive | inactive |  |  | 
CCc1ccc(NC(=O)CCCN2C(=O)c3ccccc3C2=O)cc1 | inactive | 100 mg/kg | 100 mg/kg |  | 100 mg/kg | Non-toxic | 300 mg/kg | Non-toxic |  |  |  |  |  |  | inactive |  |  | 100 mg/kg
